# According to article PMC7509987 (Biochemistry, 2020):
# Where two headings read alike, the source gives them in different places.
# What was measured:
# mTrxR-C(αMe)UG [1] = format: biochemical; details: read-out: KM (μM), Table 3, DTNB as substrate; n = 3
# DmTrxR-CCS [2] = molecular target: T1, DmTrxR-CCS (Drosophila melanogaster, UniProt P91938); assay: Inhibition of Trx-reductase activity by electrophiles; format: biochemical, D. melanogaster; details: 7 μM acrolein, pH 7, 10 min, 22 °C
# Target sequence in this assay (P91938 1-491 isoform P91938-2): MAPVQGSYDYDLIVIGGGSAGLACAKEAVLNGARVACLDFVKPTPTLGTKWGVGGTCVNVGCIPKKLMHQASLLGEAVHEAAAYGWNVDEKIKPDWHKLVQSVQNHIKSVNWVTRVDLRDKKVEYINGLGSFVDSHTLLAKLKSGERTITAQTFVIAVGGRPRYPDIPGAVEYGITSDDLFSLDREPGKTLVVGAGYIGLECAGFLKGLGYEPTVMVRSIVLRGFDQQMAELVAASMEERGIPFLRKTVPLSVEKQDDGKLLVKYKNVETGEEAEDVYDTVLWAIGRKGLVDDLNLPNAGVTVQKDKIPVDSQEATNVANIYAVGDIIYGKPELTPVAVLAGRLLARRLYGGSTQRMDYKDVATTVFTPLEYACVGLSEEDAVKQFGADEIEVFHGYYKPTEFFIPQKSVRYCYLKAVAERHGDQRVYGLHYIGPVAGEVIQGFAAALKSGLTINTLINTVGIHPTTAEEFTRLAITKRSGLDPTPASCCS
# mTrxR-C(αMe)UG [3] = molecular target: mTrxR-C(αMe)UG (Mus musculus, UniProt Q9JLT4); assay: as above; format: biochemical
# mTrxR-CUG = mTrxR-CUG (Mus musculus, UniProt Q9JLT4); assay: as above; format: biochemical
# DmTrxR-CCS [4] = molecular target: T1, DmTrxR-CCS; assay: NADPH-pre-reduced enzyme; format: biochemical; details: n = 3
# Target sequence in this assay (P91938 106-596): as the sequence (P91938 1-491 isoform P91938-2) above, with A2S, P3T, V4K, Q5G counted along it
# [5] = Solubility in aqueous solutions; format: physicochemical
# mTrxR-C(αMe)UG [6] = format: biochemical; details: read-out: KM (μM), Table 4, selenocysteamine as substrate; n = 3
# GPX = details: great excess of 4-hydroxynonenal (1 mM); cited from earlier work
# Sequence of mTrxR-CUG (Q9JLT4 35-524): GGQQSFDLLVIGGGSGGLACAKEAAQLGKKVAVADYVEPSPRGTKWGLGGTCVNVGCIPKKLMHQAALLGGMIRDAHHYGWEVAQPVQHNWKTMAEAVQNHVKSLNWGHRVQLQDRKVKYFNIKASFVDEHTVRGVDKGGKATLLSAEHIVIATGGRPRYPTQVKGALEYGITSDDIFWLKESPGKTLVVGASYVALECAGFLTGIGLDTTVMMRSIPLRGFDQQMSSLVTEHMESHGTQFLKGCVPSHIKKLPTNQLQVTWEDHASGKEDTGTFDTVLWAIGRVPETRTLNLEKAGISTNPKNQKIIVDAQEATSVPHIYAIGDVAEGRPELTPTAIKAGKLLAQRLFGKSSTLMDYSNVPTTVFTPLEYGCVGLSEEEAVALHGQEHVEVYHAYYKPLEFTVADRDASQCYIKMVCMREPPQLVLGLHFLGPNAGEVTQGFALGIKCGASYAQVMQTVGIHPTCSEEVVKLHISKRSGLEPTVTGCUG
# Sequence of mTrxR-C(αMe)UG (Mus musculus, UniProt Q9JLT4) (Q9JLT4 35-524): as above
compound,measurement,setting,value
"O=C(O)c1cc(SSc2ccc([N+](=O)[O-])c(C(=O)O)c2)ccc1[N+](=O)[O-] [DTNB, 5,5′-dithiobis(2-nitrobenzoic acid)]",Km,mTrxR-C(αMe)UG [1],5 ± 0.9 µM
"C=CC=O [Acrolein, acrolein]",inhibition of Trx-reductase activity,DmTrxR-CCS [2],75-85%
same,inhibition of Trx-reductase activity,"mTrxR-C(αMe)UG [3]; 800 nM acrolein, pH 5.5, 10 min, 22 °C",75-85%
same,inhibition of Trx-reductase activity,"mTrxR-CUG; 2.5 μM acrolein, pH 4.6, 10 min, 22 °C",75-85%
"C=CC=O [Acrolein, acrolein (prop-2-enal)]",IC50,DmTrxR-CCS [4],7 µM
"COc1cc(/C=C/C(=O)CC(=O)/C=C/c2ccc(O)c(OC)c2)ccc1O [Curcumin, curcumin]",Trx-reductase activity remains,"mTrxR-C(αMe)UG [3]; at 100 uM curcumin, mutant mTrxR",~ 65%
same,solubility,[5],≤ 100 µM
same,IC50,mTrxR-CUG,34 µM
"NCC[Se][Se]CCN [selenocysteamine, selenocysteamine (diselenide, used as dichloride; selenocystamine)]",Km,mTrxR-C(αMe)UG [6],92 ± 0.9 µM
O=C/C=C/c1ccccc1 [Cinnamaldehyde],IC50,mTrxR-C(αMe)UG [3],230 µM
same,IC50,mTrxR-CUG,225 µM
"CCCCCC(O)/C=C/C=O (stereo not drawn) [4-Hydroxynonenal, 4-hydroxynonenal]",inhibition of GPX,GPX,could not be completely inhibited
